# Assay results reported in US20250171438A1 (Agios Pharmaceuticals, Inc., priority 2022, published 2025).
# Biological target: T1, human PAH with the R408W mutation (Homo sapiens, UniProt P00439, R408W)
# T1 construct: expressed in transfected cells
# T1 sequence (P00439 1-452 R408W): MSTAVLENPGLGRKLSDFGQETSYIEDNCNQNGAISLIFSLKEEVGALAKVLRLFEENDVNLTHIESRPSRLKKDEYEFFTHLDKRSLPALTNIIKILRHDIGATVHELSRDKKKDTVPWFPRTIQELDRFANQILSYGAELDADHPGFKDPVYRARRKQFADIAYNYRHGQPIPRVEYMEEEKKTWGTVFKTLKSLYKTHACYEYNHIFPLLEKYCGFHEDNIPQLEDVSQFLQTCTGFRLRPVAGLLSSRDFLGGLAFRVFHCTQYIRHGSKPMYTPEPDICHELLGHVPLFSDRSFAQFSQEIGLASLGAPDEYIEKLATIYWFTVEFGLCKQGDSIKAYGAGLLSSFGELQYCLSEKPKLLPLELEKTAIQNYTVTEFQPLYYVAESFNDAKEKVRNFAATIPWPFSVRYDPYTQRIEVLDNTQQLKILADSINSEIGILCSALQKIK
# Assay: Cell Based Phenylalanine Flux Assay
# Conditions: A375 cells expressing human R408W PAH; 24 hrs with compound; 13C-Tyrosine by LC-MS; average where tested multiple times; read-out: AC50
# Method: Compounds were resuspended in DMSO, and 2-fold serial dilutions were performed to generate a 10-point dose curve. Compounds were added to plated cells in a total volume of 100 pal, and a final DMSO concentration of 0.5%. Each compound was tested in duplicate. Following compound addition, cells were placed in a 5% CO2, 37° C. tissue culture incubator for 24 hrs. After the incubation period, 20 μM sepiapterin and 800 μM 13C9,15N-Phenylalanine were added. After 4 hours, cell media was removed. An aliquot of 10 μl of cell media was combined with 200 μl of extraction buffer (80% acetonitrile/20% H2O) for each well. Determination of ^13C-Tyrosine concentration was assessed by liquid chromatography mass spectrometry.
# Where a compound was tested multiple times, the average value of the tests is reported.
row,AC50 [µM],SMILES
1,> 5,CC(C)(O)Cn1ncc(C(=O)N2CCc3[nH]cnc3C2c2nc3c(F)cccc3s2)c1C(F)F (stereo not shown) [listing 1 of 2 here]
2,> 5,CC(C)(O)Cn1ncc(C(=O)N2CCc3[nH]cnc3C2c2nc3c(F)cccc3s2)c1Cl (stereo not shown) [listing 1 of 2 here]
3,> 5,CC(C)(O)c1cc(C(=O)N2CCc3[nH]cnc3C2c2nc3ccccc3s2)no1 (stereo not shown) [listing 1 of 2 here]
4,> 5,CC(C)(O)c1nc(C(=O)N2CCc3[nH]cnc3C2c2nc3c(F)cccc3s2)no1 (stereo not shown) [listing 1 of 2 here]
5,> 5,CC(C)(O)c1cc(C(=O)N2CCc3[nH]cnc3C2c2nc3c(F)cccc3s2)no1 (stereo not shown) [listing 1 of 2 here]
6,> 5,CC(C)(O)c1cc(C(=O)N2CCc3[nH]cnc3C2c2nc3c(F)cccc3s2)ns1 (stereo not shown) [listing 1 of 2 here]
7,1 to 5,Cn1nc(C(F)(F)F)nc1C(=O)N1CCc2[nH]cnc2C1c1nc2ccccc2s1 (stereo not shown)
8,> 5,O=C(c1ccn[nH]1)N1CCc2[nH]cnc2C1c1nc2ccccc2s1 (stereo not shown) [listing 1 of 2 here]
9,> 5,Cc1nc(C(=O)N2CCc3[nH]cnc3C2c2nc3c(F)cccc3s2)n(C)n1 (stereo not shown) [listing 1 of 2 here]
10,> 5,Cc1nc(C(=O)N2CCc3[nH]cnc3C2c2nc3ccccc3s2)n(C)n1 (stereo not shown) [listing 1 of 2 here]
11,> 5,Cn1nc(C2CC2)nc1C(=O)N1CCc2[nH]cnc2C1c1nc2c(F)cccc2s1 (stereo not shown)
12,> 5,CC(C)(O)c1cc(C(=O)N2CCc3[nH]cnc3C2c2nc3ccccc3s2)on1 (stereo not shown)
13,> 5,CC(C)(O)c1cc(C(=O)N2CCc3[nH]cnc3C2c2nc3ccccc3s2)sn1 (stereo not shown)
14,> 5,Cn1nc(CC#N)nc1C(=O)N1CCc2[nH]cnc2C1c1nc2ccccc2s1 (stereo not shown)
15,> 5,CC(C)(O)c1noc(C(=O)N2CCc3[nH]cnc3C2c2nc3ccccc3s2)n1 (stereo not shown)
16,> 5,CC(C)(O)c1nsc(C(=O)N2CCc3[nH]cnc3C2c2nc3c(F)cccc3s2)n1 (stereo not shown)
17,> 5,CC(C)(O)c1cc(C(=O)N2CCc3[nH]cnc3C2c2nc3c(F)cccc3s2)sn1 (stereo not shown)
18,> 5,CC(C)(O)c1noc(C(=O)N2CCc3[nH]cnc3C2c2nc3c(F)cccc3s2)n1 (stereo not shown)
19,> 5,Cn1nc(CC#N)nc1C(=O)N1CCc2[nH]cnc2C1c1nc2c(F)cccc2s1 (stereo not shown)
20,> 5,Cc1cccc2sc(C3c4nc[nH]c4CCN3C(=O)c3cnn(C)c3Cl)nc12 (stereo not shown)
21,> 5,O=C(c1cnn(CCO)c1Cl)N1CCc2[nH]cnc2C1c1nc2c(F)cccc2s1 (stereo not shown)
22,> 5,Cn1ccc(C(=O)N2CCc3[nH]cnc3C2c2nc3c(F)cccc3s2)n1 (stereo not shown)
23,> 5,O=C(c1cn[nH]c1)N1CCc2nc[nH]c2C1c1nc2c(F)cccc2s1 (stereo not shown)

row,AC50 [µM],SMILES
1,> 5,O=C(c1ccn[nH]1)N1CCc2[nH]cnc2C1c1nc2c(F)cccc2s1 (stereo not shown)
2,> 5,Cn1nnc(C(=O)N2CCc3[nH]cnc3C2c2nc3c(F)cccc3s2)n1 (stereo not shown)
3,> 5,Cc1nc(N2CCN(C)CC2)oc1C(=O)N1CCc2[nH]cnc2C1c1nc2c(F)cccc2s1 (stereo not shown)
4,> 5,Cc1nc(N2CCOCC2)oc1C(=O)N1CCc2[nH]cnc2C1c1nc2c(F)cccc2s1 (stereo not shown)
5,> 5,CNC(C)(C)c1nc(C)c(C(=O)N2CCc3[nH]cnc3C2c2nc3c(F)cccc3s2)o1 (stereo not shown)
6,1 to 5,CC(C)(O)Cn1cc(C(=O)N2CCc3[nH]cnc3C2c2nc3c(F)cccc3s2)cn1 (stereo not shown)
7,1 to 5,CC(=O)Cn1cc(C(=O)N2CCc3[nH]cnc3C2c2nc3c(F)cccc3s2)cn1 (stereo not shown)
8,1 to 5,CC(C)(O)Cn1ncc(C(=O)N2CCc3[nH]cnc3C2c2nc3c(F)cccc3s2)c1C(F)F (stereo not shown) [listing 2 of 2 here]
9,1 to 5,CC(C)(O)Cn1ncc(C(=O)N2CCc3[nH]cnc3C2c2nc3c(F)cccc3s2)c1Cl (stereo not shown) [listing 2 of 2 here]
10,1 to 5,CC(=O)Cn1ncc(C(=O)N2CCc3[nH]cnc3C2c2nc3c(F)cccc3s2)c1Cl (stereo not shown)
11,1 to 5,CC(C)(O)c1cc(C(=O)N2CCc3[nH]cnc3C2c2nc3ccccc3s2)no1 (stereo not shown) [listing 2 of 2 here]
12,1 to 5,CC(C)(O)c1nc(C(=O)N2CCc3[nH]cnc3C2c2nc3ccccc3s2)no1 (stereo not shown)
13,1 to 5,CC(C)(O)c1cc(C(=O)N2CCc3[nH]cnc3C2c2nc3c(F)cccc3s2)no1 (stereo not shown) [listing 2 of 2 here]
14,1 to 5,CC(C)(O)c1nc(C(=O)N2CCc3[nH]cnc3C2c2nc3c(F)cccc3s2)no1 (stereo not shown) [listing 2 of 2 here]
15,1 to 5,CC(C)(O)c1cc(C(=O)N2CCc3[nH]cnc3C2c2nc3c(F)cccc3s2)ns1 (stereo not shown) [listing 2 of 2 here]
16,> 5,Cn1cnc(C(=O)N2CCc3[nH]cnc3C2c2nc3ccccc3s2)n1 (stereo not shown)
17,1 to 5,Cn1ccc(C(=O)N2CCc3[nH]cnc3C2c2nc3ccccc3s2)n1 (stereo not shown)
18,1 to 5,O=C(c1cn[nH]c1)N1CCc2[nH]cnc2C1c1nc2ccccc2s1 (stereo not shown)
19,1 to 5,O=C(c1ccn[nH]1)N1CCc2[nH]cnc2C1c1nc2ccccc2s1 (stereo not shown) [listing 2 of 2 here]
20,1 to 5,Cc1nc(C(=O)N2CCc3[nH]cnc3C2c2nc3ccccc3s2)n(C)n1 (stereo not shown) [listing 2 of 2 here]
21,1 to 5,Cc1nc(C(=O)N2CCc3[nH]cnc3C2c2nc3c(F)cccc3s2)n(C)n1 (stereo not shown) [listing 2 of 2 here]
22,1 to 5,O=C(c1cnco1)N1CCc2[nH]cnc2C1c1nc2c(C(F)(F)F)cccc2s1 (stereo not shown)
23,1 to 5,O=C(c1oc(C2CCN2)nc1C(F)F)N1CCc2[nH]cnc2C1c1nc2c(F)cccc2s1 (stereo not shown)
